Measurements from US12686873B2, “Plants having increased tolerance to herbicides” (priority 2012, dated 2026).
“And” between values parts separate entries of the source, which are not always exact repeats. Equal values may be shown once.

Legend:
[1] = system: Chlamydomonas reinhardtii strains; test: Selection and dose-response of Chlamydomonas reinhardtii strains
[2] = system: Soy; test: Tolerance rates for soybean (injury score 0-9); conditions: Soy
[3] = system: transgenic T1 Arabidopsis plants; test: Transgenic T1 Arabidopsis greenhouse tolerance study (injury rating); conditions: SEQ_ID 2 & 4, L397D, F420V

C#CCN1C(=O)C(F)(F)Oc2cc(F)c(-n3c(=O)n(C)c(=S)n(C)c3=O)cc21
growth of mutagenized cells plated on solid medium containing the herbicide ([1]; 1×10^−7 M in solid medium, FIG. 2B): susceptible cells do not grow | IC50 of mutagenized cells (strain 17) compared to Wild-type cells ([1]; dose-response curve, FIG. 3B versus FIG. 3A): much lower IC50 | injury score ([2]; 1,5-dimethyl-6-thioxo-3-(...)-1,3,5-triazinane-2,4-dione 12.5 g ai/ha, amino acid substitution F420L, SEQ ID NO 2): 2 and 1 | injury score ([2]; 1,5-dimethyl-6-thioxo-3-(...)-1,3,5-triazinane-2,4-dione 12.5 g ai/ha, amino acid substitution L369D, F392V, SEQ ID NO 40): 8 and 5 and 7 and 6 and 4 | injury score ([2]; 1,5-dimethyl-6-thioxo-3-(...)-1,3,5-triazinane-2,4-dione 12.5 g ai/ha, amino acid substitution L397D, F420V, SEQ ID NO 2): 2 | injury score ([2]; 1,5-dimethyl-6-thioxo-3-(...)-1,3,5-triazinane-2,4-dione 12.5 g ai/ha, amino acid substitution L397E, SEQ ID NO 2): 5 and 7 and 6 and 4 and 8 | injury score ([2]; 1,5-dimethyl-6-thioxo-3-(...)-1,3,5-triazinane-2,4-dione 12.5 g ai/ha, amino acid substitution L397Q, SEQ ID NO 2): 7 | injury score ([2]; 1,5-dimethyl-6-thioxo-3-(...)-1,3,5-triazinane-2,4-dione 12.5 g ai/ha, amino acid substitution none, SEQ ID NO 2): 3 and 7 and 6 and 5 | injury score ([2]; 1,5-dimethyl-6-thioxo-3-(...)-1,3,5-triazinane-2,4-dione 12.5 g ai/ha, amino acid substitution none, SEQ ID NO 40): 8 and 6 and 7 and 9 | injury score ([2]; 1,5-dimethyl-6-thioxo-3-(...)-1,3,5-triazinane-2,4-dione 25 g ai/ha, amino acid substitution F420L, SEQ ID NO 2): 9 and 1 and 3 and 4 and 5 | injury score ([2]; 1,5-dimethyl-6-thioxo-3-(...)-1,3,5-triazinane-2,4-dione 25 g ai/ha, amino acid substitution F420M, SEQ ID NO 2): 4 and 1 and 5 and 8 | injury score ([2]; 1,5-dimethyl-6-thioxo-3-(...)-1,3,5-triazinane-2,4-dione 25 g ai/ha, amino acid substitution L369D, F392V, SEQ ID NO 40): 9 and 8 and 6 and 7 and 4 | injury score ([2]; 1,5-dimethyl-6-thioxo-3-(...)-1,3,5-triazinane-2,4-dione 25 g ai/ha, amino acid substitution L397D, F420V, SEQ ID NO 2): 5 | injury score ([2]; 1,5-dimethyl-6-thioxo-3-(...)-1,3,5-triazinane-2,4-dione 25 g ai/ha, amino acid substitution L397D, SEQ ID NO 2): 8 and 4 and 5 | injury score ([2]; 1,5-dimethyl-6-thioxo-3-(...)-1,3,5-triazinane-2,4-dione 25 g ai/ha, amino acid substitution L397E, F420M, SEQ ID NO 2): 2 and 1 and 0 | injury score ([2]; 1,5-dimethyl-6-thioxo-3-(...)-1,3,5-triazinane-2,4-dione 25 g ai/ha, amino acid substitution L397E, SEQ ID NO 2): 5 and 8 and 6 and 7 | injury score ([2]; 1,5-dimethyl-6-thioxo-3-(...)-1,3,5-triazinane-2,4-dione 25 g ai/ha, amino acid substitution L397Q, F420M, SEQ ID NO 2): 3 and 7 and 2 and 0 and 6 | injury score ([2]; 1,5-dimethyl-6-thioxo-3-(...)-1,3,5-triazinane-2,4-dione 25 g ai/ha, amino acid substitution L397Q, F420V, SEQ ID NO 2): 4 and 6 | injury score ([2]; 1,5-dimethyl-6-thioxo-3-(...)-1,3,5-triazinane-2,4-dione 25 g ai/ha, amino acid substitution L397Q, SEQ ID NO 2): 9 | injury score ([2]; 1,5-dimethyl-6-thioxo-3-(...)-1,3,5-triazinane-2,4-dione 25 g ai/ha, amino acid substitution none, SEQ ID NO 2): 5 and 7 and 6 and 8 | injury score ([2]; 1,5-dimethyl-6-thioxo-3-(...)-1,3,5-triazinane-2,4-dione 25 g ai/ha, amino acid substitution none, SEQ ID NO 40): 9 and 6 and 7 and 8 | injury score ([2]; 1,5-dimethyl-6-thioxo-3-(...)-1,3,5-triazinane-2,4-dione 50 g ai/ha, amino acid substitution F420L, SEQ ID NO 2): 6 | injury score ([2]; 1,5-dimethyl-6-thioxo-3-(...)-1,3,5-triazinane-2,4-dione 50 g ai/ha, amino acid substitution F420M, SEQ ID NO 2): 3 and 4 and 2 and 5 and 9 | injury score ([2]; 1,5-dimethyl-6-thioxo-3-(...)-1,3,5-triazinane-2,4-dione 50 g ai/ha, amino acid substitution L369D, F392V, SEQ ID NO 40): 8 and 7 | injury score ([2]; 1,5-dimethyl-6-thioxo-3-(...)-1,3,5-triazinane-2,4-dione 50 g ai/ha, amino acid substitution L397D, F420V, SEQ ID NO 2): 4 | injury score ([2]; 1,5-dimethyl-6-thioxo-3-(...)-1,3,5-triazinane-2,4-dione 50 g ai/ha, amino acid substitution L397D, SEQ ID NO 2): 9 and 5 and 8 and 4 and 6 | injury score ([2]; 1,5-dimethyl-6-thioxo-3-(...)-1,3,5-triazinane-2,4-dione 50 g ai/ha, amino acid substitution L397E, F420M, SEQ ID NO 2): 2 and 1 | injury score ([2]; 1,5-dimethyl-6-thioxo-3-(...)-1,3,5-triazinane-2,4-dione 50 g ai/ha, amino acid substitution L397Q, F420M, SEQ ID NO 2): 2 and 7 and 3 and 4 and 6 and 5 and 1 | injury score ([2]; 1,5-dimethyl-6-thioxo-3-(...)-1,3,5-triazinane-2,4-dione 50 g ai/ha, amino acid substitution L397Q, F420V, SEQ ID NO 2): 5 and 7 | injury score ([2]; 1,5-dimethyl-6-thioxo-3-(...)-1,3,5-triazinane-2,4-dione 75 g ai/ha, amino acid substitution L397E, F420M, SEQ ID NO 2): 2 and 3 and 1 | injury score ([2]; 1,5-dimethyl-6-thioxo-3-(...)-1,3,5-triazinane-2,4-dione 75 g ai/ha, amino acid substitution L397Q, F420M, SEQ ID NO 2): 3 and 7 and 8 and 4 and 5 and 6 and 2 | injury score ([2]; 1,5-dimethyl-6-thioxo-3-(...)-1,3,5-triazinane-2,4-dione 75 g ai/ha, amino acid substitution L397Q, F420V, SEQ ID NO 2): 5 and 7 | Injury Rating 0-100% (0 = no injury, 100 = total control) ([3]; 75 g/Ha + 1% MSO, 7 DAT, Line 1): 98% | Injury Rating 0-100% (0 = no injury, 100 = total control) ([3]; 75 g/Ha + 1% MSO, 7 DAT, Line 2): 100% | Injury Rating 0-100% (0 = no injury, 100 = total control) ([3]; 75 g/Ha + 1% MSO, 7 DAT, Line 3): 80% | Injury Rating 0-100% (0 = no injury, 100 = total control) ([3]; 75 g/Ha + 1% MSO, 19 DAT, Line 1): 95% | Injury Rating 0-100% (0 = no injury, 100 = total control) ([3]; 75 g/Ha + 1% MSO, 19 DAT, Line 2): 100% | Injury Rating 0-100% (0 = no injury, 100 = total control) ([3]; 75 g/Ha + 1% MSO, 19 DAT, Line 3): 95% | Injury Rating 0-100% (0 = no injury, 100 = total control) ([3]; 150 g/Ha + 1% MSO, 7 DAT, Line 1): 30% | Injury Rating 0-100% (0 = no injury, 100 = total control) ([3]; 150 g/Ha + 1% MSO, 7 DAT, Line 2): 98% | Injury Rating 0-100% (0 = no injury, 100 = total control) ([3]; 150 g/Ha + 1% MSO, 7 DAT, Line 3): 98% | Injury Rating 0-100% (0 = no injury, 100 = total control) ([3]; 150 g/Ha + 1% MSO, 19 DAT, Line 1): 65% | Injury Rating 0-100% (0 = no injury, 100 = total control) ([3]; 150 g/Ha + 1% MSO, 19 DAT, Line 2): 100% | Injury Rating 0-100% (0 = no injury, 100 = total control) ([3]; 150 g/Ha + 1% MSO, 19 DAT, Line 3): 100% | Injury Rating 0-100% (0 = no injury, 100 = total control) ([3]; 300 g/Ha + 1% MSO, 7 DAT, Line 1): 100% | Injury Rating 0-100% (0 = no injury, 100 = total control) ([3]; 300 g/Ha + 1% MSO, 7 DAT, Line 2): 30% | Injury Rating 0-100% (0 = no injury, 100 = total control) ([3]; 300 g/Ha + 1% MSO, 7 DAT, Line 3): 35% | Injury Rating 0-100% (0 = no injury, 100 = total control) ([3]; 300 g/Ha + 1% MSO, 19 DAT, Line 1): 98% | Injury Rating 0-100% (0 = no injury, 100 = total control) ([3]; 300 g/Ha + 1% MSO, 19 DAT, Line 2): 60% | Injury Rating 0-100% (0 = no injury, 100 = total control) ([3]; 300 g/Ha + 1% MSO, 19 DAT, Line 3): 80%
